Source: patent US20140303199A1, “INHIBITORS OF RGS PROTEINS” (priority 2013, published 2014)
Structures can show the parent of a compound that is named as a salt.

Legend:
RGS4(WT) = molecular target: T1, RGS4(WT) (Rattus norvegicus, UniProt P49799); assay: Malachite green assay of RGS4-stimulated Gαi GTPase activity; format: biochemical; conditions: for Mean absorbance at 642 nm, positive control wells: 10 μM final; for IC50 / Inhibition of RGS4 (in words): malachite green assay; for IC50: RGS4 200 nM final, concentration-response, read-out: IC50 against RGS4(WT); for Inhibition of RGS4 (in words): screen hits
T1 sequence (P49799 51-205): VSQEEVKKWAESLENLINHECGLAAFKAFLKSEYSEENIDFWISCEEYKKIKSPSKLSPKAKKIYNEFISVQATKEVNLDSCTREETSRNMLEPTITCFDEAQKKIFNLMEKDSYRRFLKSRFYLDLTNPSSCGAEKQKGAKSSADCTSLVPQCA
Description: Stock solutions of each of the 3 components of the developing solution were prepared, which were stable for long-term storage [19]. Malachite solution was prepared by first diluting concentrated sulfuric acid 1:5 in distilled water. Once the solution cooled to 25° C., malachite solution was prepared by dissolving 0.44 g of malachite green oxalate (Alfa Aesar; Ward Hill, Mass.) in 360 mL diluted acid and stored at 25° C. Molybdate solution, containing 7.5% ammonium molybdate tetrahydrate (Alfa Aesar; Ward Hill, Mass.), was prepared in distilled water and stored at 4° C. Tween-20 solution, used to maintain solubility of the phosphate-molybdate-malachite complex, was prepared as 11% (v/v) Tween-20 in distilled water. On the day of use, 2.5 mL molybdate solution and 0.2 mL Tween-20 solution were added to 10 mL of malachite solution and mixed quickly to avoid precipitation of malachite. The final ratio of the Developing Solution (DS) was 50:12.5:1 (malachite:molybdate:Tween-20). The peak absorbance was determined by a 2 nm step wavelength scan, using 50 μM NaH2PO4 at pH 8.0 as the negative control.
The malachite green assay involved 5 components, with a 1 min spin at 100×g between each addition. For time-course experiments, the first component was 10 μL Malachite Green Assay Buffer (MGB; 50 mM HEPES at pH 7.5, 100 mM NaCl, 5 mM EDTA, 10 mM MgCl2, 0.01% lubrol) into a clear 384-well plate (ThermoFisher Scientific; Waltham, Mass.) using a MultiDrop dispenser (PerkinElmer; Waltham, Mass.). The second component dispensed was 10 μL of a 4× stock of RGS4, typically 200 nM to 1.6 μM with the target final concentration of 50 nM to 400 nM, diluted in MGB. After a 30 min incubation, 10 μL of the third component, 4× stock of Gαi diluted in MGB, was dispensed (typically between 4 μM and 80 μM with a desired final concentration 1 μM to 20 μM). After a minimum of 5 min incubation, 10 μL of the fourth component, 4×GTP diluted in MGB, was added at 10 minute intervals from 1-110 minutes. 4×GTP concentrations varied between 0.2 mM and 2.4 mM, with a target final concentration of 50 μM to 600 μM. To terminate the reaction, 10 μL of DS was added to each well using a Microlab Star liquid handling robot (Hamilton Robotics; Reno, Nev.), to achieve a final ratio 4:1 (sample:developing solution). Following the spin, the plate was incubated for 25 min before being read at 642 nm for absorbance using an EnVision plate reader (PerkinElmer; Waltham, Mass.).
Malachite green compound activity and Z-factor analysis conducted in 384-well plates utilized optimized parameters as discerned from the time-course experiments. 10 μL of 4× compound or MGB was dispensed into appropriate wells. For single point assay, 160 μM compound was used, and for dose-response assays a series of ½ log dilutions from 100 μM final to 316 μM final was used. 10 μL of the optimized 4×RGS4 concentration, 0.8 μM in MGB, was dispensed into all wells. After a spin down at 100×g for 1 min, the assay plate was incubated at 25° C. for 30 min. 10 μL of the optimized Gαi concentration, 20 μM in MGB, was dispensed to each well and incubated at 25° C. for 5 min. 10 μL of the optimized 4×GTP, 600 μM in MGB, was then added to the samples. After spinning the samples down at 100×g for 1 min, the samples were incubated at 25° C. for 75 min. The samples were then stamped with 10 μL of DS and incubated for 25 min before reading absorbance at 642 nm.
1536-well Z-factor analysis and compound library screen were accomplished largely as described for 384-well plates. Initial screen and Z-factor determination was performed in a final concentration of 5.5% dimethylsulfoxide. For 1536-well assays NUNC clear plates were used (ThermoFisher Scientific; Waltham, Mass.). Each component was dispensed as 1.8 μL samples into each well using a FlexDrop (PerkinElmer; Waltham, Mass.).

RGS4(Δ7) mutant = molecular target: T2, RGS4(Δ7) mutant (Rattus norvegicus, UniProt P49799, C132A/C148A/C183A/C197A/C204A/C71A/C95A); assay: Malachite green assay counter screen against cysteine-null RGS4(Δ7) mutant; format: biochemical; conditions: for IC50: concentration-response; for Inhibition of RGS4(Δ7) mutant (in words): screen hits
T2 construct: fused to the N-terminus of an RGS4 construct containing amino acids 51-205; 10x His tag (N, cleaved yes); TEV protease recognition site (N, cleaved yes); made in house; host or cells: E. coli BL21-DE3 (vector pMALC2H10T)
T2 sequence (P49799 51-205 C71A/C95A/C132A/C148A/C183A/C197A/C204A limits assumed): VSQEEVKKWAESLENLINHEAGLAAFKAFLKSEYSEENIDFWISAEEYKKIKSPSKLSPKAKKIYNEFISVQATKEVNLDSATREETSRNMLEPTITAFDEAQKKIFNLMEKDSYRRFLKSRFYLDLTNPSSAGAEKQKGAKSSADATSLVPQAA
Excerpt: Rat RGS4, sharing 97% sequence identity with human RGS4, and the cysteine to alanine mutant were expressed as fusion proteins of maltose binding protein (MBP), a 10× His tag, and a TEV protease recognition site fused to the N-terminus of an RGS4 construct containing amino acids 51-205, in the vector pMALC2H10T in BL21-DE3 bacteria (Stratagene; Santa Clara, Calif.). The single cysteine-null Δ51-RGS4 construct was generated by site-directed mutagenesis as described previously Expression and purification were performed as described previously. Purified protein was incubated with TEV protease at a molar ratio of 10:1 (fusion protein:TEV protease) overnight at 4° C. The cleaved Δ51-RGS4 was then isolated by purification over an ANX column (GE Healthcare; Fairfield, Conn.) in 50 mM HEPES at pH6.8 and 50 mM NaCl. The flow through, containing the ˜99% Δ51-RGS4 as determined by SDS-PAGE gel, was then collected and concentrated using a YM-10 centrifugal concentrator (Millipore; Billerica, Mass.). The concentration of Δ51-RGS4 was calculated based on the absorbance at 280 nm utilizing a Take-3 plate (Biotek; Winnoski, Vt.) in a Synergy 2 plate reader (Biotek; Winnoski, Vt.).
Stock solutions of each of the 3 components of the developing solution were prepared, which were stable for long-term storage. Malachite solution was prepared by first diluting concentrated sulfuric acid 1:5 in distilled water. Once the solution cooled to 25° C., malachite solution was prepared by dissolving 0.44 g of malachite green oxalate (Alfa Aesar; Ward Hill, Mass.) in 360 mL diluted acid and stored at 25° C. Molybdate solution, containing 7.5% ammonium molybdate tetrahydrate (Alfa Aesar; Ward Hill, Mass.), was prepared in distilled water and stored at 4° C. Tween-20 solution, used to maintain solubility of the phosphate-molybdate-malachite complex, was prepared as 11% (v/v) Tween-20 in distilled water. On the day of use, 2.5 mL molybdate solution and 0.2 mL Tween-20 solution were added to 10 mL of malachite solution and mixed quickly to avoid precipitation of malachite. The final ratio of the Developing Solution (DS) was 50:12.5:1 (malachite:molybdate:Tween-20). The peak absorbance was determined by a 2 nm step wavelength scan, using 50 μM NaH2PO4 at pH 8.0 as the negative control.
Malachite green compound activity and Z-factor analysis conducted in 384-well plates utilized optimized parameters as discerned from the time-course experiments. 10 μL of 4× compound or MGB was dispensed into appropriate wells. For single point assay, 160 μM compound was used, and for dose-response assays a series of ½ log dilutions from 100 μM final to […] final was used. 10 μL of the optimized 4×RGS4 concentration, 0.8 μM in MGB, was dispensed into all wells. After a spin down at 100×g for 1 min, the assay plate was incubated at 25° C. for 30 min. 10 μL of the optimized Gαi concentration, 20 μM in MGB, was dispensed to each well and incubated at 25° C. for 5 min. 10 μL of the optimized 4×GTP, 600 μM in MGB, was then added to the samples. […] The samples were then stamped with 10 μL of DS and incubated for 25 min before reading absorbance at 642 nm.
Initial hits were confirmed by single point malachite green assay at 40 μM compound. […] This control would detect compounds that either interrupt the detected complex or reduce the molybdate resulting in peak shift outside of the desired wavelength. […] Compounds that increased the predicted absorbance were carried through, as they would indicate false negatives in the assay. […]

Row | Mean absorbance at 642 nm, positive control wells (RGS4(WT); 384-well plate, 192 wells, negative control mean 1.74) | Mean absorbance at 642 nm, positive control wells (RGS4(WT); 1536-well plate, 5.5% DMSO, 128 wells, negative control mean 0.67) | SMILES | IC50 (RGS4(WT)) | IC50 (RGS4(Δ7) mutant) | Inhibition of RGS4 (in words) (RGS4(WT)) | Inhibition of RGS4(Δ7) mutant (in words) (RGS4(Δ7) mutant)
1 | 0.92 | 0.30 | Cc1ccc(-n2sc(=O)n(Cc3ccc(F)cc3)c2=O)cc1 [CCG-50014, reference compound] |  |  |  | 
2 |  |  | C[n+]1cc2c3c(ccc2c2ccc4cc5c(cc4c21)OCO5)OCO3 [UI-5, sanguinarium sulfate] | 126 µM | 454 µM |  | 
3 |  |  | CC1=C(O)C(=O)C=C2C1=CC=C1[C@@]2(C)CC[C@@]2(C)[C@@H]3C[C@](C)(C(=O)O)CC[C@]3(C)CC[C@]12C [UI-1590, celastrol] | 0.724 µM | 88 µM |  | 
4 |  |  | CC(C)=CCC[C@]1(C)C=Cc2c(O)c3c(c(CC=C(C)C)c2O1)O[C@]12C(=C[C@@H]4C[C@H]1C(C)(C)O[C@@]2(C/C=C(/C)C(=O)O)C4=O)C3=O [UI-1907, gambogic acid] | 16 µM | 51 µM | inhibitors | inhibitors
5 |  |  | CC(=O)Oc1c2c(c(CC=C(C)C)c3c1C(=O)C1=C[C@@H]4C[C@H]5C(C)(C)OC(C/C=C(\C)C(=O)O)(C4=O)[C@@]15O3)O[C@](C)(CCC=C(C)C)C=C2 [UI-2034, acetyl-isogambogic acid] |  |  | inhibitors | inhibitors
